Values of other authors, collected in US20170072004A1, “COMPOSITIONS AND METHODS FOR IMPROVING THE BIOAVAILABILITY OF CURCUMINOIDS” (priority 2015, published 2017).

Details: rats, oral curcumin 2 g/kg, co-administration of piperine

Increase in systemic bioavailability following oral dosing: ≤ 154%
SMILES: COc1cc(/C=C/C(=O)CC(=O)/C=C/c2ccc(O)c(OC)c2)ccc1O [curcumin, diferuloylmethane]
